According to article PMC4859512, “Polyamino-Isoprenic Derivatives Block Intrinsic Resistance of P. aeruginosa to Doxycycline and Chloramphenicol In Vitro” (PLoS ONE, 2016):
Where “and” joins values, the source holds several entries; their conditions need not be identical. Equal values may be shown once.

Tests used:
[1] = tested on: P. aeruginosa PA01 (wt); assay: Antibiotic susceptibility testing (broth micro-dilution MIC), strain PA01; format: cell-based, Pseudomonas aeruginosa
[2] = tested on: P. aeruginosa FB1 (Mex B deleted); assay: Antibiotic susceptibility testing (broth micro-dilution MIC), strain FB1; format: cell-based; conditions: Pseudomonas aeruginosa, read-out: Minimal Inhibitory Concentration
Protocol: Experiments were performed on the BAC-SCREEN platform of the UMR-MD1, with a Freedom EVO 150 liquid handling system (Tecan, Lyon, France).

[3] = tested on: twenty clinical isolates of P. aeruginosa; assay: Combined antibiotic / polyamino-isoprenic derivative on MH agar plates, clinical isolates; format: cell-based, Pseudomonas aeruginosa
Protocol: MH agar plates were prepared, containing 2 mg/L doxycycline and 2 mg/L doxycycline in combination with compounds at a concentration of 10 μM. Bacteria, 5 μL of a suspension of each clinical isolate adjusted to 5 x 10^5 colony-forming units per ml were spotted on each plate and growth was monitored after a 18 h period of incubation at 37°C.
PA01 is a well-studied reference strain of P. aeruginosa, however to extend our study we considered strains recently isolated from hospitalized patients. Thus, we decided to test this combination of doxycycline (2mg/L) with polyamino-isoprenic compounds (10 μM) on twenty clinical isolates recently isolated from the HIA-Laveran (see M&M section and S1 Table).

[4] = tested on: P. aeruginosa PA01; assay: Checkerboard assay with doxycycline; format: cell-based, Pseudomonas aeruginosa; conditions: PA01
Protocol: Serial two-fold dilutions of antimicrobial agents were mixed together in a microtiter plate. The range of concentration of each drug was twice the MIC, down to the eleventh serial two-fold dilutions below this amount. Doxycycline was serially diluted along the X-axis, and the polyamino-isoprenic compound or PAßN was diluted along the Y-axis as indicated. Each well was inoculated with a bacterial inoculum of 5 x 10^5 CFU/ml, and the plates were incubated at 37°C for 18 h under aerobic conditions. Each plate also contained a row and a column in which a serial dilution of polyamino-isoprenic compound or doxycycline, respectively, was present alone to determine the MIC. The FIC index was calculated as follows: FIC index = FIC A + FIC B, where FIC A is the MIC of drug A in the combination/MIC of drug A alone and FIC B is the MIC of drug B in the combination/MIC of drug B alone. The combination was considered synergistic when the FIC index is ≤0.5, and antagonistic when the FIC index is > 4 [26].

[5] = tested on: P. aeruginosa strains; assay: Synergy assays of compound 3 with representative anti-pseudomonal agents (summary in words, all strains); format: cell-based, Pseudomonas aeruginosa
Protocol: We concluded that compound 3 was the best compound and suitable for a more detailed study. The same experiment was performed using chloramphenicol (4 mg/L) in combination with 3 (10 μM final concentration). Amongst the 20 clinical isolates, the growth of 15 (75%) was impaired, while 5 (25%) were resistant (data not shown). These experiments were performed to study the effect of our compounds on the natural resistance of P. aeruginosa. In addition, we were wondering if compound 3 could also increase susceptibility to other antibiotic families including ß-Lactams, fluoroquinolones and aminoglycosides, that are representative of the main classes of anti-pseudomonal agents. Experiments were performed with the ß-lactams ceftazidime and ticarcillin and ciprofloxacin and amikacin. […]. […] To better characterize compound 3, we first searched for the minimum concentration of compound that allowed killing of bacteria by doxycycline, and PAßN was used as the reference molecule.

[6] = tested on: cytoplasmic membrane of PA01; assay: Inner membrane depolarization assay (Disc3(5) fluorescence); format: cell-based, Pseudomonas aeruginosa; conditions: PA01, Disc3(5) fluorescence
Protocol: Inner membrane depolarization assay
Cells were grown to a mid-
logarithmic phase, recovered by centrifugation (3000 X g for 20 min) and washed in 5 mM 4-(2-
hydroxyethyl)piperazine-1-ethanesulfonic acid (HEPES, pH 7.0) containing 10 mM EDTA. After 5
min incubation at room temperature, cells were recovered by centrifugation (3000 X g for 20
min), and resuspended in 5 mM HEPES (pH 7.0) containing 50 mM glucose, OD600 nm was
adjusted to 0.29. Five µl of a 160 µM suspension of [3,3’-Dipropylthiadicarbocyanine iodide]
(Disc3(5)) were added after 90 sec to 100 µl of a bacterial suspension, in a 96-well Greiner black
microplate, to reach 8 µM final concentration. After a 16.5 min incubation period allowing
incorporation of the dye into the polarized membrane, 10 µl of the appropriate compound
concentration were added. Fluorescence was monitored every 30 sec on an Infinite M200
microplate reader (Tecan; excitation wavelength 622nm and emission wavelength 690nm).
Assays were performed in two independent experiments and statistically significance was
assessed using a student’s t-test. A p-value ≤ 0.05 was considered significant.
(1 picture or pasted object on this page, not shown here)

[7] = tested on: P. aeruginosa PA01 reference strain; assay: High-content screening in the presence of doxycycline; conditions: compound 10 μM, doxycycline 4 mg/L
Protocol: The screening was carried out in 96-well microtiter plates using MHBII, in a final volume of 200 μL. […] The bacterial inoculum of 5×10^5 CFU/mL was prepared from an overnight culture. In addition to the polyamino-isoprenic compounds, each plate contained PAßN, CCCP, CTAB, polymyxin-B and benzalkonium chloride as control molecules. Plates were incubated at 37°C under aerobic conditions for 18 hours. Plates were read at 600 nm on an Infinite M200 Pro plate reader (Tecan).
A series of 60 compounds, which were described [18], were tested at a concentration of 10 μM in combination with a sub-inhibitory concentration of doxycycline against the reference strain of P. aeruginosa PA01. In parallel, we evaluated the intrinsic antimicrobial activity of these compounds alone to allow the selection of only doxycycline adjuvants.

[8] = tested on: outer membrane of P. aeruginosa PA01; assay: Outer membrane permeation assay (nitrocefin hydrolysis)
Protocol: An overnight culture of PA01 was diluted 100-fold into 10 ml MHII broth containing 0.01 μg/ml of imipenem to induce a higher level of β-lactamases. […] Absorbance at 490 nm was monitored by spectrophotometry using an Infinite M200 microplate reader (Tecan) over 60 min. Experiments were performed in triplicate.

[9] = chloramphenicol 4 mg/L + compound 10 μM
[10] = doxycycline MIC in the combination 0.0625 µg/ml
[11] = doxycycline MIC in the combination 0.125 µg/ml
[12] = doxycycline MIC in the combination 0.25 µg/ml
[13] = doxycycline MIC in the combination 0.5 µg/ml
[14] = doxycycline MIC in the combination 1 µg/ml
[15] = doxycycline MIC in the combination 2 µg/ml
[16] = doxycycline MIC in the combination 4 µg/ml
[17] = doxycycline MIC in the combination 8 µg/ml
[18] = doxycycline MIC in the combination 16 µg/ml

Structure (SMILES): CC(C)=CCCC(C)=CCCC(C)=CCNCCCNCCCCNCCCN [Compound 3]
- MIC of Amikacin in the presence of the compound ([1]; PA01, compound 10µM): 64 mg/L
- MIC of Ceftazidime in the presence of the compound ([1]; PA01, compound 10µM): 2 mg/L
- MIC of Ciprofloxacin in the presence of the compound ([1]; PA01, compound 10µM): 0.125 mg/L
- MIC of Ticarcillin in the presence of the compound ([1]; PA01, compound 10µM): 16 mg/L
- MIC ([1]; Pseudomonas aeruginosa, read-out: Minimal Inhibitory Concentration): 25 µg/mL and 62.5 µM
- MIC [2]: 25 µg/mL and 62.5 µM
- clinical isolates resistant [3, 9]: 25%
- clinical isolates resistant (number of 20) [3, 9]: 5
- clinical isolates whose growth was impaired [3, 9]: 75%
- clinical isolates whose growth was impaired (number of 20) ([3]; chloramphenicol 4 mg/L + compound 10 μM, data not shown): 15
- MIC ratio (doxycycline) ([3]; clinical isolates, with compound): 32
- isolates with doxycycline susceptibility restored ([3]; doxycycline 2 mg/L + compound 10 μM, 20 clinical isolates): total susceptibility of all the considered isolates
- Concentration of compound associated [4, 10]: 93.75 µM
- FIC index [4, 10]: 1
- Concentration of compound associated [4, 11]: 46.88 µM
- Effect [4, 11]: Synergistic (synergistic when the FIC index is ≤0.5)
- FIC index [4, 11]: 0.50
- Concentration of compound associated [4, 12]: 23.44 µM
- Effect [4, 12]: Synergistic (synergistic when the FIC index is ≤0.5)
- FIC index [4, 12]: 0.26
- Concentration of compound associated [4, 13]: 11.72 µM
- Effect [4, 13]: Synergistic (synergistic when the FIC index is ≤0.5)
- FIC index [4, 13]: 0.14
- Concentration of compound associated [4, 14]: 5.86 µM
- Effect [4, 14]: Synergistic (synergistic when the FIC index is ≤0.5)
- FIC index [4, 14]: 0.09
- Concentration of compound associated [4, 15]: 2.93 µM
- Effect [4, 15]: Synergistic (synergistic when the FIC index is ≤0.5)
- FIC index [4, 15]: 0.09
- Concentration of compound associated [4, 16]: 2.93 µM
- Effect [4, 16]: Synergistic (synergistic when the FIC index is ≤0.5)
- FIC index [4, 16]: 0.16
- Concentration of compound associated [4, 17]: 0.73 µM
- Effect [4, 17]: Synergistic (synergistic when the FIC index is ≤0.5)
- FIC index [4, 17]: 0.26
- Concentration of compound associated [4, 18]: 0.18 µM
- Effect [4, 18]: Synergistic (synergistic when the FIC index is ≤0.5)
- FIC index [4, 18]: 0.50
- FIC index ([4]; combination with doxycycline): 0.09
- synergy with ciprofloxacin ([5]; all strains with the exception of PA0-7H): No synergistic effect
- effect of combination with ticarcillin ([5]; all the strains): slight effect
- effect on the MIC of amikacin ([5]; every strains): surprising increase of the MIC
- cytoplasmic membrane depolarization [6]: dissipated the proton motive force
- bacterial growth in combination with doxycycline [7]: completely abolished bacterial growth
- outer membrane permeation efficacy ([8]; compound at 15.6μM, p value ≤ 0.05): significantly identical to 31.25μM of PMBN
- outer membrane permeation activity ([8]; compound at 31.25μM, relative to 250 μM polymyxin-B): 10%
